Among the data in ChEMBL document CHEMBL5512616, “pH regulators and their inhibitors in tumor microenvironment” (Eur J Med Chem, 2024) are Ki and IC50 values, retold here.

Molecules are shown by their SMILES. Values after ≈ are worked out from the molar mass of the structure shown.

Experiment [1] deals with T1, Carbonic anhydrase 2 (Homo sapiens, UniProt P00918).
In experiment [2] the target is T2, Carbonic anhydrase 9 (Homo sapiens, UniProt Q16790).
The target in a further experiment is Carbonic anhydrase 1 (Homo sapiens, UniProt P00915).
Carbonic anhydrase 1, sequence (P00915 whole entry): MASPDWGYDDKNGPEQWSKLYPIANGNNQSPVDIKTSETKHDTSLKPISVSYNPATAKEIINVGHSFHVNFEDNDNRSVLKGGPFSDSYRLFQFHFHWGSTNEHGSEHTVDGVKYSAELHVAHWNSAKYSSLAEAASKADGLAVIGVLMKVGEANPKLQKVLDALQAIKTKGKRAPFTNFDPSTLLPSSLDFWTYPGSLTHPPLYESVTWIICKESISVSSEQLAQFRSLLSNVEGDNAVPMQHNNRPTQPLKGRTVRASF
The target in experiment [3] is T2, Carbonic anhydrase 9. The source holds these as a separate data set.
For experiment [4], the system named is MCF7. Briefly: cells. Conditions: Homo sapiens, MCF7, 96 h.
Experiment [5] relates to MCF7. Briefly: cells. Conditions: Homo sapiens, MCF7, 72 h.
The target in experiment [6] is T3, Monocarboxylate transporter 1 (Homo sapiens, UniProt P53985).
T3 sequence (P53985 whole entry): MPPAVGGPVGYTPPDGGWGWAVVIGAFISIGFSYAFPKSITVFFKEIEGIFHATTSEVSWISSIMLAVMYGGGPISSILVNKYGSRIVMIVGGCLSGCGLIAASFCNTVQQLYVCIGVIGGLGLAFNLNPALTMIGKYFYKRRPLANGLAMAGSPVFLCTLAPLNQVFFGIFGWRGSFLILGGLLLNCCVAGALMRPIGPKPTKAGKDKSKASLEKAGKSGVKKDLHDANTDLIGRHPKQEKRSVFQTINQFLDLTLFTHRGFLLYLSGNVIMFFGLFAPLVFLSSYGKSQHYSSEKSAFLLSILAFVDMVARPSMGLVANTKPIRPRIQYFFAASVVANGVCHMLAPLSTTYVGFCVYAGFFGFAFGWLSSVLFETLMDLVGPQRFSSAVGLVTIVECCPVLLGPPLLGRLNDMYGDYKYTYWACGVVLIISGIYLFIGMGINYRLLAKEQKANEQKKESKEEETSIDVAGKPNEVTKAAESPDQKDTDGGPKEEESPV

Experiment [7] addresses T1, Carbonic anhydrase 2. This is another data set of the same source.
Experiment [8] concerns the target T2, Carbonic anhydrase 9. The source holds these as a separate data set.
The target in experiment [9] is T4, Monocarboxylate transporter 4 (Homo sapiens, UniProt O15427).
T4 sequence (O15427 whole entry): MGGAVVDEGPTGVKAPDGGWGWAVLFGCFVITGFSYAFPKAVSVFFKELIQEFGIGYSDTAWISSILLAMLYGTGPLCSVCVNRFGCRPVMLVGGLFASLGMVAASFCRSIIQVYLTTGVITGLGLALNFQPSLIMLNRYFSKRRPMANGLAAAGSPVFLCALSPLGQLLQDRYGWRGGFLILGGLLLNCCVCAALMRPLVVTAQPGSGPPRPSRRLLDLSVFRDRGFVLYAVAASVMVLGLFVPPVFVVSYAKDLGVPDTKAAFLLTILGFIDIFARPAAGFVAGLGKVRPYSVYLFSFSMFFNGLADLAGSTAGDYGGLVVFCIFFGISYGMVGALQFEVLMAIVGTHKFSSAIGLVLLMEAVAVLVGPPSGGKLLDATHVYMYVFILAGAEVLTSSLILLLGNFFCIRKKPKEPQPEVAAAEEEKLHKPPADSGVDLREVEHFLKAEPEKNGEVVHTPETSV

For experiment [10], the target named is T3, Monocarboxylate transporter 1. This is another data set of the same source.
The test system of another experiment is SK-MEL. Nature of the experiment: cells. Conditions: Homo sapiens.
The subject of the next experiment is KB. Briefly: cells. Conditions: Homo sapiens.
The subject of the next experiment is BT-549. Nature of the experiment: cells. Conditions: Homo sapiens.
In another experiment the test system is SK-OV-3. Briefly: cells. Conditions: Homo sapiens.
Experiment [11] addresses 72 kDa type IV collagenase (Homo sapiens, UniProt P08253). Briefly: Inhibition of MMP2 (unknown origin).
The target in experiment [12] is T2, Carbonic anhydrase 9. The source holds these as a separate data set.
Experiment [13] deals with MCF7. Nature of the experiment: cells. Conditions: Homo sapiens, MCF7, 72 h. The source holds these as a separate data set.
The target of experiment [14] is T3, Monocarboxylate transporter 1. This is another data set of the same source.
Experiment [15] addresses T4, Monocarboxylate transporter 4. The source holds these as a separate data set.
In experiment [16] the target is T3, Monocarboxylate transporter 1. The source holds these as a separate data set.
For experiment [17] the target is unchanged. This is another data set of the same source.
Experiment [18] concerns the target T4, Monocarboxylate transporter 4. This is another data set of the same source.
The target in experiment [19] is T1, Carbonic anhydrase 2. This is another data set of the same source.
Experiment [20] addresses T2, Carbonic anhydrase 9. The source holds these as a separate data set.
Experiment [21] deals with T1, Carbonic anhydrase 2. The source holds these as a separate data set.
Experiment [22] has as its target T2, Carbonic anhydrase 9. The source holds these as a separate data set.

72 kDa type IV collagenase, sequence (P08253 whole entry): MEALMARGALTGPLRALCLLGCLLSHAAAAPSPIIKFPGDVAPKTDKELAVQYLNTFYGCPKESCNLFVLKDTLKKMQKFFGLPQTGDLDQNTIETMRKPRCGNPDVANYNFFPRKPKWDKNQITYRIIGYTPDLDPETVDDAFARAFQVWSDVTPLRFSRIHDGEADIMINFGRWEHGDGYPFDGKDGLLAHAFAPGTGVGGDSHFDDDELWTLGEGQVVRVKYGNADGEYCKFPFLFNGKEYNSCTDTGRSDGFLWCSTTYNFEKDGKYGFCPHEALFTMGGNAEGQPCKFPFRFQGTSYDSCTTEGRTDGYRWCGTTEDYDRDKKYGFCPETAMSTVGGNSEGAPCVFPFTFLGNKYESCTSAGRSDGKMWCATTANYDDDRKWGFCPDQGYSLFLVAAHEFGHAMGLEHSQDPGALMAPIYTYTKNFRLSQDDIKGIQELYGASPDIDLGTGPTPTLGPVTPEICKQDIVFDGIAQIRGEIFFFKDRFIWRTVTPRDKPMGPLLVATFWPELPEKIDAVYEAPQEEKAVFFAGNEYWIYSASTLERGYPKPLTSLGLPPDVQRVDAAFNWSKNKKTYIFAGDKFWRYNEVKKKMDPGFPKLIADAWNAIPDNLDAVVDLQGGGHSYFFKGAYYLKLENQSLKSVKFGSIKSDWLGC

The term Ki denotes the dissociation constant of the complex between target and ligand, obtained from inhibition or displacement. A low value points to higher affinity. By IC50 is commonly meant the concentration needed to halve the response being measured. Read a high IC50 as weaker potency in that assay. Consider `NS(=O)(=O)c1ccc(N=C2C(=O)Nc3ccccc32)cc1`, for which the Ki on Carbonic anhydrase 2 [1] was 33 nM; at Carbonic anhydrase 9 [2] it was 6.5 nM. This compound also gave an IC50 at Carbonic anhydrase 1 of 65 nM.

At Carbonic anhydrase 9 [3], `C=C(C)[C@@H]1CC[C@]2(COS(N)(=O)=O)CC[C@]3(C)[C@H](CC[C@@H]4[C@@]5(C)CC[C@H](OC(C)=O)C(C)(C)[C@@H]5CC[C@]43C)[C@@H]12` displayed a Ki of 1.25 nM. Besides, the IC50 came to 7020 nM in the experiment with MCF7 [4] and 11100 nM in the experiment on MCF7 [5].

On to `CN(Cc1ccccc1)c1ccc2cc(C(=O)O)c(=O)oc2c1`, for which, in [6], the midpoint of inhibition, the IC50, lay at 59 nM.

Turning to `CC(C)n1nc(C(=O)Nc2ccc3c(c2)C=CS(=O)(=O)O3)c2ccccc21`, the Ki is more than 10000 nM at Carbonic anhydrase 2 [7] and 215 nM on Carbonic anhydrase 9 [8].

Consider `CC[C@](C)(OCc1cc(-c2cccc(OC3CC3)c2)n(-c2ccccc2N2CCC2)n1)C(=O)O`, for which the values for the IC50 in experiment [9] and in [10] were 0.36 nM and 64000 nM, respectively.

`COc1cc(/C=C/C(=O)O)ccc1OCc1cn(-c2cccc([N+](=O)[O-])c2)nn1`: the IC50 was 9 µg/mL (≈ 22.7 µM) with SK-MEL, 8 µg/mL (≈ 20.2 µM) in the experiment on KB, 9.4 µg/mL (≈ 23.7 µM) in the experiment on BT-549 and more than 10 µg/mL in the experiment on SK-OV-3.

On to `N[C@H](CNC(=O)P(=O)(O)O)CNS(=O)(=O)c1ccc(Oc2ccccc2)cc1`, for which the values for the IC50 (in [11]; at Carbonic anhydrase 9 [12]) were 15000 nM and 6220 nM, respectively.

On to `C=C(C)[C@@H]1CC[C@]2(C(=O)O)CC[C@]3(C)[C@H](CC[C@@H]4[C@@]5(C)CC[C@H](O)C(C)(C)[C@@H]5CC[C@]43C)[C@@H]12` [BETULINIC ACID], for which the IC50 in the experiment with MCF7 [4] was 14000 nM; with MCF7 [13], 16400 nM.

For the compound `O=C(Nc1ccccc1C(=O)O)c1cc(S(=O)(=O)c2ccccc2)ccc1Cl`, the IC50 in experiment [14] was 85 nM; in [15], more than 50000 nM.

As for `CC(C)(OCc1nn(Cc2ccccc2)c2ccccc12)C(=O)O` [BINDARIT], the Ki in [16] was more than 500000 nM.

For the compound `CCOC(=O)Oc1c(OC)cc(C(=O)O[C@@H]2C[C@@H]3CN4CCc5c([nH]c6cc(OC)ccc56)[C@H]4C[C@@H]3[C@H](C(=O)OC)[C@H]2OC)cc1OC` [SYROSINGOPINE], the IC50 in experiment [17] is 2500 nM; in experiment [18], 40 nM.

On to `CC(C)(O)[C@@H](O)COc1c2occc2cc2ccc(=O)oc12`, for which the Ki at Carbonic anhydrase 2 [19] is more than 10000 nM; on Carbonic anhydrase 9 [20] it was 27.5 nM; on Carbonic anhydrase 2 [21] it was more than 10000 nM; at Carbonic anhydrase 9 [22], 27.5 nM.
